Assay [1] relates to HeLa. Briefly: Cytotoxicity against human HeLa cells after 4 days by MTT assay. The format is functional, cell-based. To be noted: 96 h. (Tetrazolium dyes change colour on reduction, which living cells bring about.)
The test system of another assay is MDA-MB-231. Briefly: Cytotoxicity against human MDA-MB-231 cells after 4 days by MTT assay. The format is functional, cell-based. The settings on record: MDA-MB-231, 96 h.
Another assay deals with HCT-29. The assay is described as follows: Cytotoxicity against human HCT29 cells after 4 days by MTT assay. It counts as functional, cell-based. To be noted: HCT-29, 96 h.
For the next assay, the system named is HL-60. The assay is described as follows: Cytotoxicity against human HL60 cells after 4 days by MTT assay. The format is functional, cell-based. The settings on record: HL-60, 96 h.
Assay [2] relates to HeLa. The assay is described as follows: Cell cycle arrest in human HeLa cells assessed as enhanced ratio of cell death at 10 umol after 72 hrs using propidium iodide staining by flow cytometry relative to control. The format is functional. In general terms: In flow cytometry, cells or beads pass a laser one at a time.
A further assay relates to DU-145. The assay is described as follows: Cytotoxicity against human DU145 cells after 4 days by MTT assay. It counts as functional, cell-based. The settings on record: DU-145, 96 h.
For assay [3], the system named is HeLa. Briefly: Cell cycle arrest in human HeLa cells assessed as fold increase in G1 phase at 10 umol after 36 hrs using propidium iodide staining by flow cytometry relative to control. It counts as functional.
For assay [4], the target named is Poly [ADP-ribose] polymerase 1 (Homo sapiens) (UniProt P09874). The assay is described as follows: Inhibition of PARP1.

Active and inactive are the calls of the source. The calls are words filed in the database; no cut-off is given here.

Poly [ADP-ribose] polymerase 1 (Homo sapiens), sequence (P09874 whole entry): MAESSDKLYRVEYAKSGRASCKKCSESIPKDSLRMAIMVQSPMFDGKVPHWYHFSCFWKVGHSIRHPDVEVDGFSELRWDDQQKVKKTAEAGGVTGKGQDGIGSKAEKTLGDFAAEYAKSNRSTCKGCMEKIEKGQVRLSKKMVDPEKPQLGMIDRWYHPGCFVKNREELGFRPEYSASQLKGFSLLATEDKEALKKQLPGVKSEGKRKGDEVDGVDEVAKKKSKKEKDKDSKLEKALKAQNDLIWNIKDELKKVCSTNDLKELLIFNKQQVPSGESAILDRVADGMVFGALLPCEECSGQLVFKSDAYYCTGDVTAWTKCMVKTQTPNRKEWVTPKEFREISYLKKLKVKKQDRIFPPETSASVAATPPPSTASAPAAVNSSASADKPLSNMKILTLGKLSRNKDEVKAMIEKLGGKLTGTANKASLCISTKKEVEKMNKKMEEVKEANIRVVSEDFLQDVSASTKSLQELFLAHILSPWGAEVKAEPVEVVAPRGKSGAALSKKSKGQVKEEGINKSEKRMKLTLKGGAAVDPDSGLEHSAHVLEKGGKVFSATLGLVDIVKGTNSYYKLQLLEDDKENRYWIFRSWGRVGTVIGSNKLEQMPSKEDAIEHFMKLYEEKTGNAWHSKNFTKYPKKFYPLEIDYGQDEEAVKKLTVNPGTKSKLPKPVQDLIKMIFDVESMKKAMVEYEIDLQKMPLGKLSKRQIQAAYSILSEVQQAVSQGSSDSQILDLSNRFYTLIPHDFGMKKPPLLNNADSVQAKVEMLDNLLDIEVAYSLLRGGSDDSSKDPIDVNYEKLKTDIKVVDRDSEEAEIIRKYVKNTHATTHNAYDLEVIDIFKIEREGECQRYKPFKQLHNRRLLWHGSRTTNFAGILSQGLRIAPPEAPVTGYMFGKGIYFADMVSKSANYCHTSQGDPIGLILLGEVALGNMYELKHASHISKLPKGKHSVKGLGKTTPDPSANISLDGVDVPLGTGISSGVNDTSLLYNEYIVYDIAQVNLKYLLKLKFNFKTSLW

What is called IC50 is the point on the concentration scale where inhibition reaches its midpoint. Higher therefore signals lower potency. For `O=C(c1ccc(-c2nc3ccccc3c(=O)[nH]2)cc1)N1CCN(S(=O)(=O)Cc2ccc(Cl)cc2)CC1`, the IC50 with HeLa [1] was 4.4 µM; in the assay with MDA-MB-231, more than 50 µM; in the assay with HCT-29, 12.6 µM; with HL-60, more than 50 µM; with DU-145, 27.1 µM. The Ratio in the assay on HeLa [2] amounted to 8.74. For the same compound, the “fold change (FC)” value in the assay with HeLa [3] came to 1.2.
On to `O=C(c1ccc(-c2nc3ccccc3c(=O)[nH]2)cc1)N1CCN(S(=O)(=O)Cc2ccccc2)CC1`, for which the IC50 in the assay with HeLa [1] stood at 9.1 µM; with MDA-MB-231 it was 15.8 µM; in the assay with HCT-29, 2.3 µM; in the assay with HL-60, 18.7 µM; with DU-145 it was 7.7 µM. Moreover, in assay [4], the inhibition entry was “inactive”. Further, the Ratio in the assay with HeLa [2] is listed as 7.04. For the same compound, in the assay on HeLa [3], the “fold change (FC)” value came out at 1.21.
As to `O=C(c1ccc(-c2nc3ccccc3c(=O)[nH]2)cc1)N1CCN(S(=O)(=O)C2CCCC2)CC1`, the IC50 was determined as 11.2 µM with HeLa [1]; 14.7 µM in the assay with MDA-MB-231; 12.9 µM in the assay with HCT-29; 11.2 µM in the assay with HL-60; 4.8 µM in the assay with DU-145. In addition, in the assay with HeLa [2], the Ratio was determined as 5.96. Further, the “fold change (FC)” value in the assay on HeLa [3] is recorded as 1.2.
For the compound `O=C(c1ccc(-c2nc3ccccc3c(=O)[nH]2)cc1)N1CCN(S(=O)(=O)c2ccc3ccccc3c2)CC1`, the IC50 is 13.3 µM in the assay with HeLa [1]; more than 50 µM in the assay on MDA-MB-231; 16.5 µM in the assay on HCT-29; 26.6 µM in the assay with HL-60; 27.8 µM in the assay with DU-145.
On to `O=C(c1ccc(-c2nc3ccccc3c(=O)[nH]2)cc1)N1CCN(S(=O)(=O)c2ccc([N+](=O)[O-])cc2)CC1`, for which the IC50 was found to be 20 µM in the assay with HeLa [1]; 12.5 µM with MDA-MB-231; 2.6 µM in the assay on HCT-29; 2 µM in the assay with HL-60; 25.2 µM in the assay on DU-145. Also, the inhibition result in assay [4] was “inactive”.
Turning to `COc1ccc(Cn2c(-c3ccc(C(=O)N4CCN(S(=O)(=O)c5ccc(OC)cc5)CC4)cc3)nc3ccccc3c2=O)cc1`, the IC50 in the assay on HeLa [1] was determined as 16.5 µM; in the assay with MDA-MB-231, 9.9 µM; in the assay with HCT-29 it was 5.8 µM; with HL-60 it was 3.8 µM; in the assay with DU-145 it was 5.8 µM. Also, in the assay with HeLa [2], the Ratio is 7.29. For the same compound, the “fold change (FC)” value with HeLa [3] came to 1.18.
In the case of `COc1ccc(Cn2c(-c3ccc(C(=O)N4CCN(S(=O)(=O)c5ccccc5)CC4)cc3)nc3ccccc3c2=O)cc1`, the IC50 in the assay on HeLa [1] stood at 2.9 µM; in the assay with MDA-MB-231 it was 4.2 µM; with HCT-29, 8.6 µM; with HL-60, 2.6 µM; in the assay with DU-145 it was 2.5 µM. In addition, the Ratio in the assay with HeLa [2] is 6.83. In addition, the “fold change (FC)” value in the assay on HeLa [3] is reported as 1.19.
Regarding `O=C(c1ccc(-c2nc3ccccc3c(=O)[nH]2)cc1)N1CCN(S(=O)(=O)c2cccs2)CC1`, the IC50 was more than 50 µM in the assay on HeLa [1]; 9.4 µM with MDA-MB-231; 15.7 µM with HCT-29; 2.2 µM in the assay on HL-60; 21.3 µM in the assay on DU-145.
For `O=C(c1ccc(-c2nc3ccccc3c(=O)[nH]2)cc1)N1CCN(S(=O)(=O)c2ccc(Cl)cc2)CC1`, in that order: 18 µM, more than 50 µM, more than 50 µM, 13.6 µM and more than 50 µM.
